Patent US5043166A, “Liposome/anthraquinone drug composition and method” (priority 1989, dated 1991)
Where two headings read alike, the source gives them in different places.

Legend:
[1] = peroxidation in liposomes with chelators; format: physicochemical
[2] = chemical modification of DXR in stored liposomes; format: physicochemical; settings: stored anoxic 1 day at 4° C.
Experimental: The liposomes were stored under anoxic conditions for 1 day at 4° C., as above. Chemical modification of the drug was detected both by fluorescence emission spectroscopy and by assaying the change in drug toward a more lipophilic species, as described in Section A above.

[3] = prior to or concurrent with DXR administration; cited from earlier work
[4] = Ni^2+; cited from earlier work
[5] = Fe^3+; cited from earlier work
[6] = Zn^2+; cited from earlier work
[7] = Co^2+; cited from earlier work
[8] = in vivo; cited from earlier work
[9] = Cu^2+; cited from earlier work
[10] = Fe^2+; cited from earlier work
[11] = Mg^2+; cited from earlier work
[12] = Ca^2+; cited from earlier work

## O=C(O)CN(CCN(CC(=O)O)CC(=O)O)CC(=O)O [EDTA, ethylenediaminetetraacetic acid]
[1]
  effect on peroxidation damage in liposomes: peroxidation-stimulating effect

## Cc1c(C)c2c(c(C)c1O)CCC(C)(CCCC(C)CCCC(C)CCCC(C)C)O2 (stereo not drawn) [α-T, alpha-tocopherol]
[2]
  protection against drug modification: moderate protections
[3]
  reduction of cardiotoxicity: effective in reducing cardiotoxicity

## CC(=O)N(O)CCCCCNC(=O)CCC(=O)N(O)CCCCCNC(=O)CCC(=O)N(O)CCCCCN [ferrioxamine, ferrioxamine B]
[2]
  protection against drug modification: moderate protections
[4]
  Binding Affinity: 10^10
[5]
  Binding Affinity: 10^31
[6]
  Binding Affinity: 10^11
[7]
  Binding Affinity: 10^11
[8]
  safety for parenteral use in humans: proven safe for parenteral use in humans
[9]
  Binding Affinity: 10^14
[10]
  Binding Affinity: 10^10
[11]
  Binding Affinity: 10^4
[12]
  Binding Affinity: 10^2

## O=C(O)CN(CCN(CC(=O)O)CC(=O)O)CCN(CC(=O)O)CC(=O)O [DTPA]
[1]; in the presence of lipids and ferric iron
  effect on anthraquinone modification in vitro: protective effect
